The values below come from patent US10787444B2, “Compounds for the modulation of myc activity” (Syros Pharmaceuticals, Inc., priority 2015, dated 2020).

Experiment [1] deals with human small lung cancer cell line H2171. The experiment can be described thus: Cell Viability Assay (ATPlite). It counts as cell-based. Conditions: read-out: H2171 Activity. The method, boiled down:
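H2171 cells were plated at 20,000 cells/mL and dosed immediately by pin transfer with a 10-point dose series in DMSO. After three days at 37° C, ATPlite luminescence served as the viability readout.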

The target of a further experiment is T1, c-Myc/Max/Ebox DNA (Homo sapiens, UniProt P01106).
T1 construct: his6 (cleaved yes)
T1 sequence (P01106 whole entry): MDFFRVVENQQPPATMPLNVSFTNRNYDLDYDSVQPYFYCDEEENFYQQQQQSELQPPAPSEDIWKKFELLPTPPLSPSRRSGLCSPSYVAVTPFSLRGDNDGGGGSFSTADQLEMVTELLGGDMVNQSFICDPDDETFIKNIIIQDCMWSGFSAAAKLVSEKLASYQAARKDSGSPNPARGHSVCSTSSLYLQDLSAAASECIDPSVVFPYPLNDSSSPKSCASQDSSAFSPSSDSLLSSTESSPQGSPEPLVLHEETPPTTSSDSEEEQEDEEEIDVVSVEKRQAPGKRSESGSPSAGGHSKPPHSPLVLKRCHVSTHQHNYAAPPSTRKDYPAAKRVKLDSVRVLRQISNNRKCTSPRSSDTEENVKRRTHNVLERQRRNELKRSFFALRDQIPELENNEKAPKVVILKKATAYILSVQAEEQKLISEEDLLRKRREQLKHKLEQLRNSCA
The experiment can be described thus: c-Myc/Max/Ebox DNA AlphaScreen Assay. It counts as binding. To be noted: calculated IC50 class. In short, it runs like this:
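Compounds were preincubated with free c-Myc (20 nM), biotinylated single-Ebox DNA (10 nM) and Ni acceptor beads before his6-Max (5 nM) and streptavidin donor beads were added. Buffer was 50 mM HEPES pH 8.0, 150 mM NaCl, BSA, Tween20, glycogen and DTT, with DMSO ≤2%. After 2 h incubation, AlphaScreen signal was read at 680 nm excitation and 520–620 nm emission.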

Setting [2] is: Homo sapiens, NCI-H2171, 72 h, Table 3, compounds of FIG. 2, H2171 cells, three days, ATPlite, calculated IC50 class.
Setting [3] is: Homo sapiens, NCI-H2171, 72 h, Table 2, compounds of FIG. 1, H2171 cells, three days, ATPlite, calculated IC50 class.
Setting [4] is: Table 2, compounds of FIG. 1, H2171 cells, three days, ATPlite, calculated IC50 class.

Structures are written as SMILES. Counter-ions that a name gives are not always drawn. Like-named read-outs stand apart in the source and are kept apart here.

For `CC(=O)Nc1sc2c(c1-c1nc3ccccc3s1)C(F)CNC2` (stereo not shown) [Compound 217, N-(3-(benzo[d]thiazol-2-yl)-4-fluoro-4,5,6,7-tetrahydrothieno[2,3-c]pyridin-2-yl) acetamide], the IC50 in experiment [1] (setting [2]) is less than 300 nM; at c-Myc/Max/Ebox DNA (Table 3, compounds of FIG. 2), greater than 10000 nM.

Regarding `COCCNCCC(=O)Nc1sc2c(c1-c1nc3ccc(-c4ccncc4)cc3s1)CC(C)NC2C` (single isomer, unassigned) [Compound 517, N-(5,7-Dimethyl-3-(6-(pyridin-4-yl)benzo[d]thiazol-2-yl)-4,5,6,7-tetrahydrothieno[2,3-c]pyridin-2-yl)-3-((2-methoxyethyl)amino)propanamide], the IC50 in experiment [1] (setting [3]) was less than 300 nM; on c-Myc/Max/Ebox DNA (Table 2, compounds of FIG. 1) it was less than 300 nM.

Take `COCCNCCC(=O)Nc1sc2c(c1-c1nc3c(C#N)cccc3s1)CCNC2` [compound 568]: the IC50 in experiment [1] (setting [3]) is less than 300 nM; at c-Myc/Max/Ebox DNA (Table 2, compounds of FIG. 1) it was less than 300 nM.

In the case of `COCCNCCC(=O)Nc1sc2c(c1-c1nc3cc(-c4ccncc4)ccc3s1)C[C@H](C)N[C@@H]2C` [Compound 532, N-((5S,7R)-5,7-dimethyl-3-(5-(pyridin-4-yl)benzo[d]thiazol-2-yl)-4,5,6,7-tetrahydrothieno[2,3-c]pyridin-2-yl)-3-((2-methoxyethyl)amino)propanamide], the IC50 in experiment [1] (setting [3]) was 300 to 1000 nM; on c-Myc/Max/Ebox DNA (Table 2, compounds of FIG. 1), greater than 10000 nM.

`COCCNCCC(=O)Nc1sc2c(c1-c1nc3cc(-c4ccncc4)ccc3s1)CCNC2` [compound 308]: the IC50 is less than 300 nM in experiment [1] (setting [3]) and less than 300 nM on c-Myc/Max/Ebox DNA (Table 2, compounds of FIG. 1).

Regarding `COCCNCCC(=O)Nc1sc2c(c1-c1nc3cc(F)ccc3s1)CC(C)NC2C` (single isomer, unassigned) [Compound 545, N-(3-(5-Fluorobenzo[d]thiazol-2-yl)-5,7-dimethyl-4,5,6,7-tetrahydrothieno[2,3-c]pyridin-2-yl)-3-((2-methoxyethyl)amino)propanamide], the IC50 in experiment [1] (setting [4]) is less than 300 nM; at c-Myc/Max/Ebox DNA (Table 2, compounds of FIG. 1), less than 300 nM.

As for `CC[C@H](C)NCCC(=O)Nc1sc2c(c1-c1nc3cc(F)ccc3s1)CCNC2` [Compound 156, (S)-3-(sec-butylamino)-N-(3-(5-fluorobenzo[d]thiazol-2-yl)-4,5,6,7-tetrahydrothieno[2,3-c]pyridin-2-yl)propanamide hydrochloride], the IC50 in experiment [1] (setting [3]) is less than 300 nM; at c-Myc/Max/Ebox DNA (Table 2, compounds of FIG. 1), less than 300 nM.

As to `COCCNCCC(=O)Nc1sc2c(c1-c1nc3cc(-c4ccncc4)ccc3s1)CC(C)NC2C` (single isomer, unassigned) [Compound 522, N-(5,7-dimethyl-3-(5-(pyridin-4-yl)benzo[d]thiazol-2-yl)-4,5,6,7-tetrahydrothieno[2,3-c]pyridin-2-yl)-3-((2-methoxyethyl)amino)propanamide], the IC50 in experiment [1] (setting [4]) is less than 300 nM; on c-Myc/Max/Ebox DNA (Table 2, compounds of FIG. 1), less than 300 nM.

Turning to `COCCNCCC(=O)Nc1sc2c(c1-c1nc3ccc(-c4cn[nH]c4)cc3s1)CCNC2` [compound 339], the IC50 is less than 300 nM in experiment [1] (setting [3]) and less than 300 nM at c-Myc/Max/Ebox DNA (Table 2, compounds of FIG. 1).

With `CC(C)N1CCc2c(sc(NC(=O)CCNCc3cnn(C)c3)c2-c2nc3ccccc3s2)C1` [Compound 100, N-(3-(benzo[d]thiazol-2-yl)-6-isopropyl-4,5,6,7-tetrahydrothieno[2,3-c]pyridin-2-yl)-3-(((1-methyl-1H-pyrazol-4-yl)methyl)amino)propanamide], the IC50 in experiment [1] (setting [3]) was less than 300 nM; at c-Myc/Max/Ebox DNA (Table 2, compounds of FIG. 1), 300 to 1000 nM.

In the case of `COCCNCCC(=O)Nc1sc2c(c1-c1nc3cc(-c4cnn(C)c4)ccc3s1)CC(C)NC2C` (single isomer, unassigned) [Compound 564, N-(5,7-Dimethyl-3-(5-(1-methyl-1H-pyrazol-4-yl)benzo[d]thiazol-2-yl)-4,5,6,7-tetrahydrothieno[2,3-c]pyridin-2-yl)-3-((2-methoxyethyl)amino)propanamide], the IC50 is less than 300 nM in experiment [1] (setting [3]) and less than 300 nM on c-Myc/Max/Ebox DNA (Table 2, compounds of FIG. 1).

As to `CCNCCC(=O)Nc1sc2c(c1-c1nc3ccccc3s1)CCN(C(C)C)C2` [Compound 540, N-(3-(Benzo[d]thiazol-2-yl)-6-isopropyl-4,5,6,7-tetrahydrothieno[2,3-c]pyridin-2-yl)-3-(ethylamino)propanamide], the IC50 in experiment [1] (Homo sapiens, NCI-H2171, 72 h) was less than 300 nM; at c-Myc/Max/Ebox DNA (Table 2, compounds of FIG. 1), 300 to 1000 nM.

Consider `CC(C)NCCC(=O)Nc1sc2c(c1-c1nc3c(-c4ccncc4)cccc3s1)CCNC2` [compound 535], for which the IC50 was less than 300 nM in experiment [1] (setting [3]) and less than 300 nM on c-Myc/Max/Ebox DNA (Table 2, compounds of FIG. 1).

Take `COCCNCCC(=O)Nc1sc2c(c1-c1nc3ccc(-c4cnoc4)cc3s1)CCNC2` [compound 469]: the IC50 was less than 300 nM in experiment [1] (setting [3]) and less than 300 nM on c-Myc/Max/Ebox DNA (Table 2, compounds of FIG. 1).

Take `COCCNCCC(=O)Nc1sc2c(c1-c1nc3cc(-c4ccc(C#N)nc4)ccc3s1)CCNC2` [compound 405]: the IC50 in experiment [1] (setting [3]) was less than 300 nM; at c-Myc/Max/Ebox DNA (Table 2, compounds of FIG. 1), less than 300 nM.

`CC(C)NCCC(=O)Nc1sc2c(c1-c1nc3ccccc3s1)CCNC2` [Compound 129, N-(3-(benzo[d]thiazol-2-yl)-4,5,6,7-tetrahydrothieno[2,3-c]pyridin-2-yl)-3-(isopropylamino)propanamide]: the IC50 in experiment [1] (setting [3]) is less than 300 nM; on c-Myc/Max/Ebox DNA (Table 2, compounds of FIG. 1), less than 300 nM.

`CCC(C)N(C)CCC(=O)Nc1sc2c(c1-c1nc3ccccc3s1)CCN(C(C)C)C2` (stereo not shown) [Compound 577, N-(3-(benzo[d]thiazol-2-yl)-6-isopropyl-4,5,6,7 tetrahydrothieno[2,3-c]pyridin-2-yl)-3-(sec-butyl(methyl)amino)propanamide]: the IC50 is greater than 10000 nM in experiment [1] (setting [4]) and greater than 10000 nM at c-Myc/Max/Ebox DNA (Table 2, compounds of FIG. 1).

With `CC[C@H](C)NCCC(=O)Nc1sc2c(c1-c1nc3cc(-c4ccncc4)ccc3s1)CCN(CC)C2` [Compound 588, (S)-3-(sec-butylamino)-N-(6-ethyl-3-(5-(pyridin-4-yl)benzo[d]thiazol-2-yl)-4,5,6,7-tetrahydrothieno[2,3-c]pyridin-2-yl)propanamide], the IC50 is less than 300 nM in experiment [1] (setting [3]) and less than 300 nM on c-Myc/Max/Ebox DNA (Table 2, compounds of FIG. 1).

Take `COCCNCCC(=O)Nc1sc2c(c1-c1nc3cc(-c4ccn[nH]4)ccc3s1)CCNC2` [compound 406]: the IC50 in experiment [1] (setting [3]) is less than 300 nM; at c-Myc/Max/Ebox DNA (Table 2, compounds of FIG. 1), less than 300 nM.

With `COCCNCCC(=O)Nc1sc2c(c1-c1nc3cc(C4=CCNCC4)ccc3s1)CCNC2` [compound 497], the IC50 in experiment [1] (setting [3]) is less than 300 nM; at c-Myc/Max/Ebox DNA (Table 2, compounds of FIG. 1), less than 300 nM.

`O=C(CCNCc1c[nH]cn1)Nc1sc2c(c1-c1nc3ccccc3s1)CCNC2` [Compound 190, 3-(((1H-imidazol-4-yl)methyl)amino)-N-(3-(benzo[d]thiazol-2-yl)-4,5,6,7-tetrahydrothieno[2,3-c]pyridin-2-yl)propanamide]: the IC50 in experiment [1] (setting [3]) was less than 300 nM; on c-Myc/Max/Ebox DNA (Table 2, compounds of FIG. 1), less than 300 nM.

On to `COCCNCCC(=O)Nc1sc2c(c1-c1nc3cc(C)ccc3s1)CCNC2` [Compound 314, 3-((2-Methoxyethyl)amino)-N-(3-(5-methylbenzo[d]thiazol-2-yl)-4,5,6,7-tetrahydrothieno[2,3-c]pyridin-2-yl)propanamide], for which the IC50 is less than 300 nM in experiment [1] (setting [3]) and less than 300 nM on c-Myc/Max/Ebox DNA (Table 2, compounds of FIG. 1).

Consider `COCCNCCC(=O)Nc1sc2c(c1-c1nc3cc(-c4cccnc4)ccc3s1)CC(C)NC2C` (single isomer, unassigned) [Compound 526, N-(5,7-Dimethyl-3-(5-(pyridin-3-yl)benzo[d]thiazol-2-yl)-4,5,6,7-tetrahydrothieno[2,3-c]pyridin-2-yl)-3-((2-methoxyethyl)amino)propanamide], for which the IC50 in experiment [1] (setting [4]) was 300 to 1000 nM; on c-Myc/Max/Ebox DNA (Table 2, compounds of FIG. 1), 1000 to 10000 nM.

Turning to `O=C(CCN[C@@H]1C[C@H]2CNC[C@H]2C1)Nc1sc2c(c1-c1nc3ccccc3s1)CCNC2` [Compound 573, N-(3-(Benzo[d]thiazol-2-yl)-4,5,6,7-tetrahydrothieno[2,3-c]pyridin-2-yl)-3-(((3aR,5s,6aS)-octahydrocyclopenta[c]pyrrol-5-yl)amino)propanamide], the IC50 in experiment [1] (setting [3]) was 300 to 1000 nM; on c-Myc/Max/Ebox DNA (Table 2, compounds of FIG. 1) it was 300 to 1000 nM.

In the case of `CC(=O)Nc1sc2c(c1-c1nc3c(C)cccc3s1)CCNC2` [Compound 225, N-(3-(4-methylbenzo[d]thiazol-2-yl)-4,5,6,7-tetrahydrothieno[2,3-c]pyridin-2-yl)acetamide], the IC50 in experiment [1] (setting [2]) is less than 300 nM; on c-Myc/Max/Ebox DNA (Table 3, compounds of FIG. 2), 300 to 1000 nM.

Turning to `CNCCC(=O)Nc1sc2c(c1-c1nc3ccccc3s1)CCNC2` [Compound 128, N-(3-(benzo[d]thiazol-2-yl)-4,5,6,7-tetrahydrothieno[2,3-c]pyridin-2-yl)-3-(methylamino)propanamide], the IC50 is less than 300 nM in experiment [1] (setting [3]) and less than 300 nM at c-Myc/Max/Ebox DNA (Table 2, compounds of FIG. 1).

As for `COCCNC(=O)c1ccc2sc(-c3c(NC(=O)CCNC(C)C)sc4c3CCNC4)nc2c1` [Compound 323, 2-(2-(3-(Isopropylamino)propanamido)-4,5,6,7-tetrahydrothieno[2,3-c]pyridin-3-yl)-N-(2-methoxyethyl)benzo[d]thiazole-5-carboxamide], the IC50 was less than 300 nM in experiment [1] (setting [3]) and less than 300 nM on c-Myc/Max/Ebox DNA (Table 2, compounds of FIG. 1).

`COCCNCCC(=O)Nc1sc2c(c1-c1nc3cc(F)ccc3s1)C[C@H](C)NC2` [Compound 571]: the IC50 in experiment [1] (setting [3]) is less than 300 nM; on c-Myc/Max/Ebox DNA (Table 2, compounds of FIG. 1) it was less than 300 nM.

Turning to `CC[C@H](C)NCCC(=O)Nc1sc2c(c1-c1nc3ccccc3s1)CCN(C1CC(F)(F)C1)C2` [Compound 619, (S)—N-(3-(benzo[d]thiazol-2-yl)-6-(3,3-difluorocyclobutyl)-4,5,6,7-tetrahydrothieno[2,3-c]pyridin-2-yl)-3-(sec-butylamino)propanamide], the IC50 is less than 300 nM in experiment [1] (setting [3]) and 1000 to 10000 nM at c-Myc/Max/Ebox DNA (Table 2, compounds of FIG. 1).
